{
  "source": "patent US9289409B2",
  "about": "“Sulindac formulations in a biodegradable material” (Warsaw Orthopedic, Inc., priority 2008, dated 2016)",
  "key": {"[1]": {"system": "Rat Chronic Constriction Injury Model", "assay": "Hargreaves test, thermal hyperalgesia, rat chronic constriction injury (Bennett) model", "type": "in vivo, Wistar rat", "conditions": "sulindac intraperitoneally 0.4 mg/kg/day; days 7-56; FIG. 3", "source_text": "(§1) The inventors evaluated the efficacy of a 5 Month Sulindac/Polymer Drug Depot in the Rat Chronic Constriction Injury Model. The animal model was the Bennett Model (Wistar rat). The purpose: To determine whether a 5 month polymer sulindac-eluting depot can improve pain associated behavioral responses in a rat model of neuropathic pain.\n(§2) Experimental Design: Four loose chromic gut ligatures, 1 mm apart, were tied around the common sciatic nerve at mid-thigh. Each animal received treatment of test or control article-according to the dosing described in Table 4.\n(§3) To date, the inventors have conducted the present study for a period of 57 days and have employed the following two tests: (1) the Hargreaves test on days 7, 14, 21, 28, 35, 42, 49, and 56; and (2) the von Frey test on days 8, 15, 22, 29, 36, 43, 50, and 57. The results of theses tests are summarized in FIGS. 3-6 and show the efficacy of sulindac of the recited time periods."}, "[2]": {"system": "Rat Chronic Constriction Injury Model", "assay": "von Frey test, mechanical allodynia, rat chronic constriction injury (Bennett) model", "type": "in vivo, Wistar rat", "conditions": "sulindac intraperitoneally 0.4 mg/kg/day; days 8-57; FIG. 4", "source_text": "as §1, §2, §3"}},
  "data": [
    {"smiles": "CC1=C(CC(=O)O)c2cc(F)ccc2/C1=C\\c1ccc([S+](C)[O-])cc1", "note": "(centres unmarked) [sulindac]", "values": [
      {"measurement": "pain behavioral response (percentage of baseline), thermal hyperalgesia, compared to unloaded polymer depot", "setting": "[1]", "value": "consistently reduced the behavioral response"},
      {"measurement": "pain behavioral response (percentage of baseline), mechanical allodynia, compared to unloaded polymer depots", "setting": "[2]", "value": "reduced the behavioral response"}
    ]}
  ]
}
